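Results reflect a 48-hour exposure of cells in 96-well plates to compound at five concentrations. TGI: total growth inhibition.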
How the values were obtained:
Assay in all cases: NCI anticancer screen, dose series, 48 h
LOX IMVI melanoma = system: LOX IMVI melanoma
A498 renal = system: A498 renal
RXF 393 renal = system: RXF 393 renal
UO-31 renal = system: UO-31 renal
NCI-H23 lung = system: NCI-H23 lung
SK-MEL-5 melanoma = system: SK-MEL-5 melanoma
SF-539 CNS = system: SF-539 CNS
SK-MEL-2 melanoma = system: SK-MEL-2 melanoma
UACC-257 melanoma = system: UACC-257 melanoma
COLO 205 colon = system: COLO 205 colon
M14 melanoma = system: M14 melanoma
OVCAR-5 ovarian = system: OVCAR-5 ovarian
DU-145 prostate = system: DU-145 prostate
HS 578T breast = system: HS 578T breast
MCF7 breast = system: MCF7 breast

## CC1(c2cccc3c2C2(O)C=CC4(CCC32)OCCO4)OCCO1 (configuration not stated)
LOX IMVI melanoma
  TGI: > 100 µM
A498 renal
  TGI: > 100 µM
RXF 393 renal
  TGI: > 100 µM
UO-31 renal
  TGI: > 100 µM
NCI-H23 lung
  TGI: > 100 µM
SK-MEL-5 melanoma
  TGI: > 100 µM
SF-539 CNS
  TGI: > 100 µM
SK-MEL-2 melanoma
  TGI: > 100 µM
UACC-257 melanoma
  TGI: > 100 µM
COLO 205 colon
  TGI: > 100 µM
M14 melanoma
  TGI: > 100 µM
OVCAR-5 ovarian
  TGI: > 100 µM

## CC(=O)OCCOCNC(=S)N/N=C/c1ccc2ccccc2n1
LOX IMVI melanoma
  TGI: > 100 µM
A498 renal
  TGI: > 100 µM
RXF 393 renal
  TGI: > 100 µM
UO-31 renal
  TGI: > 100 µM
NCI-H23 lung
  TGI: > 100 µM
SK-MEL-5 melanoma
  TGI: 60.8 µM
SF-539 CNS
  TGI: > 100 µM
SK-MEL-2 melanoma
  TGI: > 100 µM
UACC-257 melanoma
  TGI: > 100 µM
COLO 205 colon
  TGI: 46.6 µM
M14 melanoma
  TGI: > 100 µM
OVCAR-5 ovarian
  TGI: 65.5 µM

## COC(=O)C1CC(=O)CCC1c1ccccc1 (configuration not stated)
LOX IMVI melanoma
  TGI: > 100 µM
A498 renal
  TGI: > 100 µM
UO-31 renal
  TGI: > 100 µM
NCI-H23 lung
  TGI: > 100 µM
SK-MEL-5 melanoma
  TGI: > 100 µM
SF-539 CNS
  TGI: > 100 µM
SK-MEL-2 melanoma
  TGI: > 100 µM
UACC-257 melanoma
  TGI: > 100 µM
COLO 205 colon
  TGI: > 100 µM
M14 melanoma
  TGI: > 100 µM
OVCAR-5 ovarian
  TGI: > 100 µM

## CC1(C)OCC2(CO1)CSCCCSCC1(COC(C)(C)OC1)CSCCCSC2
LOX IMVI melanoma
  TGI: > 100 µM
DU-145 prostate
  TGI: > 100 µM
UO-31 renal
  TGI: > 100 µM
NCI-H23 lung
  TGI: > 100 µM
SK-MEL-5 melanoma
  TGI: > 100 µM
SF-539 CNS
  TGI: > 100 µM
UACC-257 melanoma
  TGI: > 100 µM
COLO 205 colon
  TGI: > 100 µM
M14 melanoma
  TGI: > 100 µM
OVCAR-5 ovarian
  TGI: > 100 µM

## COc1ccc(-c2cc(-c3ccc(Cl)cc3)n(C3OC(CO)C(O)C(O)C3O)c(=S)c2C#N)cc1 (configuration not stated)
LOX IMVI melanoma
  TGI: > 100 µM
DU-145 prostate
  TGI: > 100 µM
UO-31 renal
  TGI: > 100 µM
SK-MEL-5 melanoma
  TGI: > 100 µM
SF-539 CNS
  TGI: > 100 µM
SK-MEL-2 melanoma
  TGI: 97.9 µM
UACC-257 melanoma
  TGI: > 100 µM
HS 578T breast
  TGI: > 100 µM
COLO 205 colon
  TGI: > 100 µM
M14 melanoma
  TGI: 89.7 µM
OVCAR-5 ovarian
  TGI: 82.2 µM

## CC1C2=C(CC(C)(C)CC2=O)NC2=C1C(=O)CC(C)(C)C2
LOX IMVI melanoma
  TGI: > 100 µM
A498 renal
  TGI: > 100 µM
UO-31 renal
  TGI: > 100 µM
NCI-H23 lung
  TGI: > 100 µM
SK-MEL-5 melanoma
  TGI: > 100 µM
SF-539 CNS
  TGI: > 100 µM
HS 578T breast
  TGI: > 100 µM
MCF7 breast
  TGI: > 100 µM
M14 melanoma
  TGI: > 100 µM
OVCAR-5 ovarian
  TGI: > 100 µM

## CC(NC(=O)C(OC(=O)C(C)NC(=O)OC(C)(C)C)C(C)C)C(=O)OC(C(=O)O)C(C)C (configuration not stated)
DU-145 prostate
  TGI: > 100 µM
RXF 393 renal
  TGI: > 100 µM
UO-31 renal
  TGI: > 100 µM
SK-MEL-5 melanoma
  TGI: > 100 µM
SF-539 CNS
  TGI: > 100 µM
SK-MEL-2 melanoma
  TGI: > 100 µM
UACC-257 melanoma
  TGI: > 100 µM
HS 578T breast
  TGI: > 100 µM
COLO 205 colon
  TGI: > 100 µM
M14 melanoma
  TGI: > 100 µM
OVCAR-5 ovarian
  TGI: > 100 µM

## N#Cc1nc(C2CC2)oc1N
LOX IMVI melanoma
  TGI: > 100 µM
DU-145 prostate
  TGI: > 100 µM
RXF 393 renal
  TGI: > 100 µM
NCI-H23 lung
  TGI: > 100 µM
SF-539 CNS
  TGI: > 100 µM
SK-MEL-2 melanoma
  TGI: > 100 µM
UACC-257 melanoma
  TGI: > 100 µM
HS 578T breast
  TGI: > 100 µM
COLO 205 colon
  TGI: > 100 µM
MCF7 breast
  TGI: > 100 µM
M14 melanoma
  TGI: > 100 µM
OVCAR-5 ovarian
  TGI: > 100 µM

## O=C1c2cccc3cccc(c23)C(=O)N1CCCNCCCCNCCCN1C(=O)c2cccc3cccc(c23)C1=O
LOX IMVI melanoma
  TGI: 0.255 µM
A498 renal
  TGI: 2.45 µM
DU-145 prostate
  TGI: 1.14 µM
RXF 393 renal
  TGI: 0.698 µM
UO-31 renal
  TGI: 5.51 µM
NCI-H23 lung
  TGI: 0.866 µM
SK-MEL-5 melanoma
  TGI: 1.93 µM
SF-539 CNS
  TGI: 1.57 µM
SK-MEL-2 melanoma
  TGI: 1.89 µM
UACC-257 melanoma
  TGI: 1.91 µM
HS 578T breast
  TGI: 0.216 µM
COLO 205 colon
  TGI: 1.25 µM
M14 melanoma
  TGI: 1.94 µM
OVCAR-5 ovarian
  TGI: 2.44 µM

## COc1cccc(/C(CC(O)(C(F)(F)F)C(F)(F)F)=N\N(C)C)c1
LOX IMVI melanoma
  TGI: > 100 µM
A498 renal
  TGI: > 100 µM
DU-145 prostate
  TGI: > 100 µM
RXF 393 renal
  TGI: > 100 µM
UO-31 renal
  TGI: > 100 µM
NCI-H23 lung
  TGI: > 100 µM
SK-MEL-5 melanoma
  TGI: > 100 µM
SF-539 CNS
  TGI: > 100 µM
SK-MEL-2 melanoma
  TGI: > 100 µM
HS 578T breast
  TGI: > 100 µM
COLO 205 colon
  TGI: > 100 µM
M14 melanoma
  TGI: > 100 µM
OVCAR-5 ovarian
  TGI: > 100 µM

## O=C(O)c1nc2cc(C(F)(F)F)ccc2nc1Nc1ccc(Cl)c(Cl)c1
LOX IMVI melanoma
  TGI: 31.2 µM
A498 renal
  TGI: 31.1 µM
RXF 393 renal
  TGI: 37.5 µM
UO-31 renal
  TGI: 27.6 µM
NCI-H23 lung
  TGI: 31.7 µM
SK-MEL-5 melanoma
  TGI: 52.6 µM
SF-539 CNS
  TGI: 23.7 µM
SK-MEL-2 melanoma
  TGI: 8.25 µM
UACC-257 melanoma
  TGI: 64.5 µM
HS 578T breast
  TGI: 37.8 µM
COLO 205 colon
  TGI: 30.2 µM
MCF7 breast
  TGI: 90.1 µM
M14 melanoma
  TGI: 26 µM
OVCAR-5 ovarian
  TGI: 32 µM

## C[C@@]12c3c4ccc(C=O)c3Oc3ccc(C=O)c(c31)Oc1c(C=O)ccc(c12)O4
LOX IMVI melanoma
  TGI: > 100 µM
A498 renal
  TGI: > 100 µM
UO-31 renal
  TGI: > 100 µM
NCI-H23 lung
  TGI: > 100 µM
SK-MEL-5 melanoma
  TGI: > 100 µM
SF-539 CNS
  TGI: > 100 µM
SK-MEL-2 melanoma
  TGI: > 100 µM
UACC-257 melanoma
  TGI: > 100 µM
HS 578T breast
  TGI: > 100 µM
COLO 205 colon
  TGI: > 100 µM
MCF7 breast
  TGI: > 100 µM
M14 melanoma
  TGI: > 100 µM
OVCAR-5 ovarian
  TGI: > 100 µM

## CN(C)/C(N)=N/C(N)=Nc1cccc(Cl)c1
LOX IMVI melanoma
  TGI: > 100 µM
UO-31 renal
  TGI: > 100 µM
NCI-H23 lung
  TGI: > 100 µM
SK-MEL-5 melanoma
  TGI: 74.6 µM
SF-539 CNS
  TGI: > 100 µM
SK-MEL-2 melanoma
  TGI: > 100 µM
UACC-257 melanoma
  TGI: > 100 µM
HS 578T breast
  TGI: > 100 µM
COLO 205 colon
  TGI: 49.8 µM
MCF7 breast
  TGI: > 100 µM
M14 melanoma
  TGI: > 100 µM
OVCAR-5 ovarian
  TGI: > 100 µM

## CCC(CC)C(=O)OC[n+]1ccc(-c2c(COC(=O)NC(C)C)c(COC(=O)NC(C)C)c3n2CCC3)cc1
A498 renal
  TGI: > 100 µM
RXF 393 renal
  TGI: > 100 µM
UO-31 renal
  TGI: > 100 µM
NCI-H23 lung
  TGI: > 100 µM
SK-MEL-5 melanoma
  TGI: > 100 µM
SF-539 CNS
  TGI: > 100 µM
UACC-257 melanoma
  TGI: > 100 µM
HS 578T breast
  TGI: > 100 µM
COLO 205 colon
  TGI: > 100 µM
MCF7 breast
  TGI: > 100 µM
M14 melanoma
  TGI: > 100 µM

## Cc1cccc2[nH]c3cc(O)cc(O)c3c(=O)c12
LOX IMVI melanoma
  TGI: > 10 µM
DU-145 prostate
  TGI: > 10 µM
RXF 393 renal
  TGI: > 10 µM
UO-31 renal
  TGI: > 10 µM
NCI-H23 lung
  TGI: > 10 µM
SK-MEL-5 melanoma
  TGI: > 10 µM
SF-539 CNS
  TGI: > 10 µM
SK-MEL-2 melanoma
  TGI: > 10 µM
UACC-257 melanoma
  TGI: > 10 µM
HS 578T breast
  TGI: > 10 µM
COLO 205 colon
  TGI: > 10 µM
M14 melanoma
  TGI: > 10 µM
OVCAR-5 ovarian
  TGI: > 10 µM

## C#CCSc1nc(N)c2ncn(C3OC(CO)C(O)C3O)c2n1 (configuration not stated)
LOX IMVI melanoma
  TGI: > 100 µM
A498 renal
  TGI: > 100 µM
RXF 393 renal
  TGI: > 100 µM
UO-31 renal
  TGI: > 100 µM
NCI-H23 lung
  TGI: > 100 µM
SK-MEL-5 melanoma
  TGI: > 100 µM
UACC-257 melanoma
  TGI: > 100 µM
COLO 205 colon
  TGI: > 100 µM

## O=c1[nH]c(=O)n(C2CC(O)C(CO)O2)cc1OCCc1ccccc1 (configuration not stated)
LOX IMVI melanoma
  TGI: > 100 µM
DU-145 prostate
  TGI: > 100 µM
RXF 393 renal
  TGI: > 100 µM
UO-31 renal
  TGI: > 100 µM
NCI-H23 lung
  TGI: > 100 µM
SK-MEL-5 melanoma
  TGI: > 100 µM
UACC-257 melanoma
  TGI: > 100 µM
HS 578T breast
  TGI: > 100 µM
COLO 205 colon
  TGI: > 100 µM
MCF7 breast
  TGI: > 100 µM
M14 melanoma
  TGI: > 100 µM
OVCAR-5 ovarian
  TGI: > 100 µM

## O=C1CSC(/C=C/c2ccccc2)N1c1ccc(-c2ccc(-n3c(-c4ccccc4)nc4ccccc4c3=O)cc2)cc1 (configuration not stated)
LOX IMVI melanoma
  TGI: 32.7 µM
A498 renal
  TGI: > 100 µM
DU-145 prostate
  TGI: > 100 µM
UO-31 renal
  TGI: 50.6 µM
NCI-H23 lung
  TGI: > 100 µM
SK-MEL-5 melanoma
  TGI: 27.7 µM
SK-MEL-2 melanoma
  TGI: 38.6 µM
UACC-257 melanoma
  TGI: 93.1 µM
COLO 205 colon
  TGI: 36.6 µM
MCF7 breast
  TGI: 95.9 µM
M14 melanoma
  TGI: 35.4 µM
OVCAR-5 ovarian
  TGI: 41.6 µM

## O=C1CSC(/C(=C/c2ccccc2)c2nc3ccccc3[nH]2)=N1
LOX IMVI melanoma
  TGI: > 100 µM
A498 renal
  TGI: > 100 µM
UO-31 renal
  TGI: > 100 µM
NCI-H23 lung
  TGI: 92.7 µM
SK-MEL-5 melanoma
  TGI: 38.3 µM
SF-539 CNS
  TGI: 74.4 µM
SK-MEL-2 melanoma
  TGI: > 100 µM
UACC-257 melanoma
  TGI: > 100 µM
COLO 205 colon
  TGI: > 100 µM
M14 melanoma
  TGI: > 100 µM
OVCAR-5 ovarian
  TGI: > 100 µM

Source: PubChem BioAssay (NCI)
